Laboratory results reported in patent publication US10813920B2, “Drug for treating corneal endothelium by promoting cell proliferation or inhibiting cell damage” (THE DOSHISHA, priority 2013, dated 2020).

Columns and labels:
[1] = test system: human corneal endothelial cells; experiment: Decrease in cell density of cultured human corneal endothelial cells (phase difference microscope); type: cell-based; conditions: 1, 3, 10 μM; after 20 days; vs control
Excerpt: For corneal endothelial cells, cell density decreases about 0.5% annually with age in a living organism. Further, the cell density also decreases due to various corneal endothelial diseases. Cell culture causes hypertrophy of cells and cellular as in a living organism and cellular senescence like reduction as in a living organism, which is a decrease in cell density. In this regard, the effect of p38 MAP kinase signal inhibition was studied on cellular senescence like reduction, which is a decrease in corneal endothelial cell density. […] Decrease in cell density due to culturing was inhibited and the cell density increased in an SB203580 concentration-dependent manner (bottom panel: vertical axis indicates cell density (mm^2) and the horizontal axis indicates, from the left, control, SB203580 1 μM, 3 μM, and 10 μM. ** indicates statistical significance (p<0.05) with respect to the control).
Cellular senescence-like decrease similar to a living organism, such as hypertrophy and decrease in density of cells, occurs from cell culture. In this regard, the effect of p38 MAP kinase signal inhibition on cellular senescence-like decrease such as decrease in corneal endothelial cell density was studied. […]

[2] = test system: human corneal endothelial cells; experiment: IL-6 production by RT-PCR and ELISA; type: cell-based; conditions: 10 μM, cultured for 20 days
Description: *PCR: PCR was carried out on each laminin chain and integrin chain by RT-PCR (reverse transcription polymerase chain reaction). A primer was purchased from the oligonucleotide synthesis company INVITROGEN and then desalinized for use. RNEasy Mini Kit (QIAGEN, catalog number: 74106) was used for extracting the entire RNA from cells. The Descemet's membrane including corneal endothelial cells were peeled off from a cornea for research purchased from the Seattle Eye Bank and the corneal endothelial cells were mechanically peeled off with the basal membrane for use in RNA extraction from the corneal endothelial cells. […]
Electrophoresis is applied to an amplified DNA fragment with 1.5% agarose gel (Nacalai Tesque, catalog number: 01149-76) and the fragment was detected by staining with ethidium bromide (Nacalai Tesque, catalog number: 14603-51).
*The amount of IL-6 expression of human corneal endothelial cells was quantified by RT-PCR by the following method. […] The reaction was stopped with 1M sulfuric acid to measure the absorbance at 450 nm with a plate reader. […] The amount of IL-6 protein in a culture supernatant collected after 7 days was quantified in accordance with the manual of DuoSetELISA human IL-6 (R & D Cat # DY206). […]

## C[S+]([O-])c1ccc(-c2nc(-c3ccncc3)c(-c3ccc(F)cc3)[nH]2)cc1 (stereo not drawn) [SB203580, 4-(4-fluorophenyl)-2-(4-methylsulfinylphenyl)-5-(4-pyridyl)-1H-imidazole]
[1]
  Decrease in cell density due to culture: inhibited in a SB203580 concentration dependent manner
[2]; RT-PCR
  IL-6 production (PCR): decreases relative to the control
[2]; supernatant collected after 7 days
  IL-6 production (ELISA): decreases relative to the control
